Reference: paper PMC4789278, “Pharmacological inhibition of LSD1 for the treatment of MLL-rearranged leukemia” (Journal of Hematology & Oncology, 2016)

What was measured:
[1] = tested on: HoxA9 and Meis1 expression in MV4-11 cells; assay: Quantitative real-time PCR of HoxA9 and Meis1; format: cell-based, human
Procedure: Next, we examined whether LSD1 inhibition can block the expression of HoxA9 and Meis1, whose overexpression has been observed in MLL-rearranged leukemia.
For 3 days, 10^4 cells/well were incubated with a compound, and the RNA was extracted from cells using RNeasy mini kit (QIAGEN); 100–1000 ng of total RNA was reverse transcribed using iScript™ Reverse Transcription Supermix (Bio-Rad) using the manufacturer’s protocol. Quantitative real-time PCR was carried out using Fast SYBR Green Master Mix (Applied Biosystems) according to the manufacturer’s instructions. Measurements were performed in triplicate, using GAPDH as the reference gene. Real-time PCR was performed using Biosystems Step One Plus detection system. The following sequences of primers are used: […]

[2] = tested on: prostate cancer LNCaP cells; assay: Antiproliferation assay (MTT), LNCaP; format: cell-based; details: Homo sapiens, 360 h, 15-day treatment, read-out: LNCaP EC50 (antiproliferative)
Procedure: (§1) We next examined the spectrum of antitumor activity for compounds 1–4. These compounds were incubated with a panel of six human leukemia and solid tumor cell lines, including two MLL-rearranged leukemia cells MV4-11 and Molm-13 containing fusion oncogenes MLL-AF4 and -AF9, respectively. […] Also included in the studies are breast cancer MCF-7 and prostate cancer LNCaP cells. […]
(§2) Proliferation inhibition assay for suspension leukemia cells was performed using an XTT assay kit (Roche) with our previously described method. Proliferation inhibition assay for solid tumor cell lines MCF-7 and LNCaP was performed using our previous described MTT assay. The antiproliferation EC50 values were determined by Prism, and the reported results were the mean values of at least three independent experiments.

[3] = tested on: H3K4me2 in MV4-11 cells; assay: Western blot of histone H3K4 methylation; format: cell-based, human; details: 3 days
Procedure: Compounds 1 and 2 were selected for further biological activity testing. MV4-11 cells were treated with these two compounds for 3 days. […] Other researchers observed the similar results using a different LSD1 inhibitor.
With increasing concentrations of a compound for […], 10^6 cells/well were incubated and histones extracted with the EpiQuik™ Total Histone Extraction Kit (Epigentek) according to the manufacturer’s protocol. Equal amounts of histones (2 μg) were separated on SDS-PAGE and transferred to PVDF membranes. The blots were probed with H3K4-Me2 and H3 primary antibodies (Cell Signaling), followed by antirabbit IgG (Thermo Scientific) secondary antibodies.

[4] = tested on: U937 leukemia cells; assay: Antiproliferation assay (XTT), U937; format: cell-based; details: Homo sapiens, U-937, 360 h; 15-day treatment; non-MLL leukemia cells; read-out: U937 EC50 (antiproliferative)
Procedure: as §1, §2

[5] = tested on: NB4 leukemia cells; assay: Antiproliferation assay (XTT), NB4; format: cell-based; details: Homo sapiens, 360 h; 15-day treatment; non-MLL leukemia cells; read-out: NB4 EC50 (antiproliferative)
Procedure: as §1, §2

[6] = tested on: human primary leukemia cells from an AML patient with MLL-ENL fusion oncogene; assay: Colony-forming assay; format: cell-based; details: 336 h, colonies counted after 14 days, read-out: colony-forming ability EC50
Procedure: Colony-forming assay using non-serum culture media represents a useful method to assess self-renewal capacity of stem-like cancer cells. The number of cell colonies formed in the assay reflects the proportion of stem-like cells in a given number of cancer cells. […] Human MLL-rearranged AML samples will be obtained from the Children’s Oncology Group (COG) Biopathology Center, in accordance with the IRB-approved protocol H-24170. The colony-forming assay was performed according to our previously published method. After 14 days, the colony number of each culture dish was counted and imported into Prism 5.0 and EC50 values were determined by using the sigmoidal dose response curve fitting in the software.

[7] = tested on: gene expression in MV4-11 cells; assay: Microarray / GSEA; format: cell-based, human; details: 7 days
Procedure: To this end, triplicate samples of MV4-11 cells were treated with compounds 1 and 2 and the RNA of these samples was isolated, amplified, and hybridized to Illumina HT-12 microarrays. The microarray data were log2-transformed and normalized to have the same median values for comparative analysis. Moderate t test was applied to search for genes that were differentially expressed between the control and compound treated samples, using the filter thresholds of p values <0.05 and fold changes >4. […] Next, we used gene set enrichment analysis (GSEA) in an effort to find the possible mechanism(s) for the LSD1 inhibition-mediated antileukemia activity.
For 7 days, 10^5 cells/well were incubated with compounds. Cells were treated with Trizol® Reagent, frozen in liquid nitrogen, and shipped to Asuragen, Inc. (Austin, TX) for microarray experiments. RNA from these samples was isolated, amplified, and hybridized to Illumina Human HT-12 v4 arrays according to the manufacturer’s protocol. Microarray data were log2 transformed and normalized to have the same median for all the arrays. Moderate t statistics were used to find genes that were differentially expressed between the samples of interest. Benjamini and Hochberg method was used to correct for multiple comparisons. […]

[8] = tested on: MV4-11 cells; assay: FACS of differentiation markers CD14 / CD11b; format: cell-based, human; details: for cell populations expressing high levels of CD14: treatment for 12 days
Procedure: Importantly, only these stem-like cancer cells can form new tumors when transplanted into a new host, while the other non-stem cancer cells fail to do so. These stem-like cancer cells are more drug resistant and believed to be responsible for tumor metastasis and relapse. […] CD14 and CD11b are two cell surface proteins characteristic to differentiated macrophages/monocytes. […] Similarly, incubation with 2 led to considerably more CD11b^+ cells (Fig. 3b).
(§3) For Annexin V apoptosis assay, 10^5 cells/well were incubated with increasing concentrations of a compound for 7 or 14 days. Apoptosis was determined using the FITC Annexin V Apoptosis Detection Kit I (BD Bioscience) using the manufacturer’s protocol. For other FACS assays, cells were labeled with fluorochrome-conjugated monoclonal antibodies against human CD14, CD11b, CD45, or CD33 (BD Biosciences) according to the manufacturer’s recommendation. Cells were analyzed using a FACS Calibur (BD Biosciences/Applied Biosystems), and data were processed using the program Flowjo (version7.6.5).

[9] = tested on: MV4-11 cells; assay: FACS-based Annexin-V apoptosis assay; format: cell-based, human
Procedure: as §3

Compound: CN1CCN(C(=O)CNC2CC2c2ccc(OCc3ccccc3)cc2)CC1 (stereo not shown) [Compound 1]
- expression of HoxA9 and Meis1 [1]: significantly decrease the expression of both HoxA9 and Meis1 in a dose-dependent manner
- EC50 [2]: 3.7 µM
- cellular levels of H3K4me2 [3]: increase cellular levels of H3K4me2 in a dose-dependent manner
- EC50 [4]: 18.9 µM
- EC50 [5]: 19.4 µM
- EC50 [6]: 0.43 µM
- expression of hematopoietic differentiation and pro-apoptotic gene sets (GSEA) [7]: significant upregulation
- cell populations expressing high levels of CD14 [8]: > 90%
- apoptosis of MV4-11 cells ([9]; 30 nM, day 7): 12%
- apoptosis of MV4-11 cells ([9]; 30 nM, day 14): 20%
- apoptosis of MV4-11 cells ([9]; 300 nM, day 7): 13%
- apoptosis of MV4-11 cells ([9]; 300 nM, day 14): 26%

Compound: CN1CCN(C(=O)CNC2CC2c2ccc(-c3ccc(F)nc3)cc2)CC1 (stereo not shown) [Compound 2]
- expression of HoxA9 and Meis1 [1]: significantly decrease the expression of both HoxA9 and Meis1 in a dose-dependent manner
- EC50 [2]: 10 µM
- cellular levels of H3K4me2 [3]: increase cellular levels of H3K4me2 in a dose-dependent manner
- EC50 [4]: 34.6 µM
- EC50 [5]: 18.9 µM
- EC50 [6]: 0.52 µM
- expression of hematopoietic differentiation and pro-apoptotic gene sets (GSEA) [7]: significant upregulation
- CD11b+ cells ([8]; 1 μM): 19.5%
- cell populations expressing high levels of CD14 [8]: > 90%
- apoptosis of MV4-11 cells ([9]; 0.1 μM, 7 days): 11%
- apoptosis of MV4-11 cells ([9]; 0.1 μM, 14 days): 13%
- apoptosis of MV4-11 cells ([9]; 1 μM, 7 days): 45%
- apoptosis of MV4-11 cells ([9]; 1 μM, 14 days): 49%
